Source: patent US10087144B2, “Agents for use in the treatment of cardiovascular and inflammatory diseases structurally based on 4(1 H)-quinolone” (UCL Business PLC, priority 2015, dated 2018)
Where two headings read alike, the source gives them in different places.

Columns and labels:
[1] = tested on: rat mesenteric artery smooth muscle cells; assay: Ca2+ flux in response to Angiotensin II in isolated rat mesenteric artery smooth muscle cells (FLIPR); assay type: cell-based; settings: for inhibition at 1 µM / inhibition at 10 µM: Rattus norvegicus; for inhibition at 1 µM: read-out: % inhibition 1 μM; for inhibition at 10 µM: read-out: % inhibition 10 μM
Protocol: Mesenteric artery smooth muscle cells were isolated from male Sprague-Dawley rats (200-250 g). Mesenteric arteries were dissected, cleared of extraneous tissue and incubated in an enzyme solution containing collagenase type I (1 mg/ml), soybean trypsin inhibitor (0.25 mg/ml), bovine albumin (1 mg/ml), CaCl2 (0.2 mM), 100 U/ml penicillin (100 U/ml) and streptomycin (100 μg/ml) in a humidified incubator with 5% CO2 in air. The enzyme solution was replenished at 30 min intervals and cells were pelleted by centrifugation (200 g, 5 min) and differentially plated (×2) for 15 min in Dulbecco's Modified Eagle's Medium (DMEM) supplemented with penicillin (100 U/ml), streptomycin (100 μg/ml), L-Glutamine (2 mM) and 10% heat inactivated New Zealand foetal calf serum. Cells were passaged by trypsinisation and viability determined by trypan blue exclusion.
Measurements of Ca^2+ flux in response to Angiotensin II were conducted using a Fluorescent Imaging Plate Reader (FLIPR; Molecular Devices). Cells were plated at a density of 10,000 cells/well into black, clear-bottomed 96-well plates in DMEM supplemented with penicillin (100 U/ml), streptomycin (100 μg/ml), L-Glutamine (2 mM) and 10% heat inactivated New Zealand foetal calf serum. 24 hrs later the cells were incubated with Fluo-3-AM (4 μM) for 60 min at 37° C. Once dye-loaded, the cells were washed thoroughly with the proprietary assay buffer to remove any unincorporated dye. The cells were then incubated with varying concentrations of a number of representative NPR-C agonist molecules of the invention, C-type natriuretic peptide or vehicle (DMSO) and placed into the FLIPR. After 15 mins, Angiotensin II (100 nM) was automatically dispensed into each well and the fluorescence signal followed for 5 mins. Potency was determined by comparison of the peak fluorescence in each test well (run in triplicate) with that of the control (Angiotensin II alone). Background fluorescence (assay buffer only) was subtracted from all values.

rat mesenteric arteries = assay: Vasoreactivity in rat mesenteric arteries in vitro (relaxation of U46619-contracted vessels, tension myograph); settings: for EC50: vasorelaxation, calculated from concentration-response curves
Protocol: Male rats (Sprague-Dawley; 200-250 g) were stunned and killed by cervical dislocation. The mesentery was removed and third-order arteries mounted in an automated tension myograph (Danish Myotechnology). After an equilibration period of 45 min, vessels were normalized and diameter determined. Following normalization, each vessel was contracted repeatedly with the thromboxane A2-mimetic 9,11-dideoxy-11^α,9^α-epoxymethano-prostaglandin F2α (U46619; 1 μM) until the response was reproducible. The vessels were then washed to restore basal tone before contracting to approximately 50% of the maximum U46619-induced response. Once a stable response to U46619 was achieved, cumulative concentration-response curves were constructed with a variety of NPR-C agonists of the invention at varying concentrations (0.001-30 μM), or vehicle (DMSO). In some studies, concentration-response curves to NPR-C agonists were conducted in the presence of the NPR-C antagonist M372049 (10 μM). Only one curve to any one agonist was constructed in any single tissue.

Human NPR-C = Human NPR-C (Homo sapiens (Human), UniProt P17342); assay: Surface plasmon resonance (SPR) spectroscopy, binding to immobilised human NPR-C; settings: FIGS. 5, 6 and 7
Human NPR-C, sequence (P17342 27-541): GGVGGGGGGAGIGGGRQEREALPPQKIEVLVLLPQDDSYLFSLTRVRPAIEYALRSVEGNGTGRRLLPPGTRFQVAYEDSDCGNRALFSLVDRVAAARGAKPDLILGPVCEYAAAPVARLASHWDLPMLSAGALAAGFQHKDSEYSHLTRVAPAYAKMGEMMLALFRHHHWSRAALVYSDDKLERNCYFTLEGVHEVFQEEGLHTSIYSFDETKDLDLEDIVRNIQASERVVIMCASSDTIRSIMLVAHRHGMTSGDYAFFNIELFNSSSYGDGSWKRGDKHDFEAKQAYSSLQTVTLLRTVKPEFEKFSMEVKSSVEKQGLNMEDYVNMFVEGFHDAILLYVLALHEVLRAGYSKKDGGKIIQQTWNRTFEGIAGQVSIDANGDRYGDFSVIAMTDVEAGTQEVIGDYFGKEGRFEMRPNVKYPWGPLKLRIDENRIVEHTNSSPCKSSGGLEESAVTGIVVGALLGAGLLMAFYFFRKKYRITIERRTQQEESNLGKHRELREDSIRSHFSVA
Protocol: All SPR analysis was performed on a BIAcore T200 system using series S CM5 sensor chips. Data processing and analysis were performed using BIAevaluation software and Scrubber2. All sensorgrams were double referenced by subtracting the response on a reference flowcell and a blank sample.
Human NPR-C (OriGene, Rockville, USA), was covalently attached to a CM5 chip via amine coupling. A surface density of 2700 RU was used for measurements with natriuretic peptides and the NPR-C antagonist M372049, and a density of 5200 RU for measurements with compound 118. Sequential injections of CNP (0.25, 0.50, 1, 2 & 4 nM) were performed at a flow rate of 30 μL/min for (240 s for each), followed by a dissociation time of 3600 s. Binding site saturation was observed and the surface was regenerated by two injections of 1M NaCl (200 s each). Binding of M372049 (0.94, 1.88, 3.75, 7.5, 15, 30 & 60 nM) and Compound 118 (1.17, 2.34, 4.70, 9.38, 18.75, 37.50, 75 & 150 μM) was analysed by sequential injections (120 s for M372049, 30 s for compound 118) followed by undisturbed dissociation (600 s for M372049, 30 s for compound 118), during which curves returned to baseline. Kinetic parameters were calculated assuming a simple 1:1 (Langmuir) binding.

[2] = 1 μM compound, inhibition of Angiotensin II (100 nM) Ca2+ flux peak fluorescence
[3] = 10 μM compound, inhibition of Angiotensin II (100 nM) Ca2+ flux peak fluorescence
[4] = 1 μM, U46619-contracted third-order arteries
[5] = 3 μM, U46619-contracted third-order arteries
[6] = 10 μM, U46619-contracted third-order arteries
[7] = 30 μM, U46619-contracted third-order arteries

Structure (SMILES) | % inhibition 1 μM [1, 2] | % inhibition 10 μM [1, 3] | further results
CC(C)C[C@H](NC(=O)c1cn(Cc2ccccc2)c2ccc(Br)cc2c1=O)C(=O)OC(C)(C)C [Compound 60, (S)-tert-butyl 2-(1-benzyl-6-bromo-4-oxo-1,4-dihydroquinoline-3-carboxamido)-4-methylpentanoate] | – | – | inhibition at 1 µM [1, 2]: 0%; inhibition at 10 µM [1, 3]: 80%
CC(C)(C)OC(=O)[C@H](Cc1ccccc1)NC(=O)c1cn(Cc2ccccc2)c2ccc(Br)cc2c1=O [Compound 61, (S)-tert-butyl 2-(1-benzyl-6-bromo-4-oxo-1,4-dihydroquinoline-3-carboxamido)-3-phenylpropanoate] | – | – | inhibition at 1 µM [1, 2]: 27%; inhibition at 10 µM [1, 3]: 100%
CC(C)(C)OC(=O)CNC(=O)c1cn(Cc2ccccc2)c2ccc(Br)cc2c1=O [Compound 62] | 0% | 50% | –
CC(C)[C@H](NC(=O)c1cn(Cc2ccccc2)c2ccc(Br)cc2c1=O)C(=O)OC(C)(C)C [Compound 63, (S)-tert-butyl 2-(1-benzyl-6-bromo-4-oxo-1,4-dihydroquinoline-3-carboxamido)-3-methylbutanoate] | – | – | inhibition at 1 µM [1, 2]: 58%; inhibition at 10 µM [1, 3]: 100%
CCOC(=O)c1c[nH]c2ccccc2c1=O [Compound 84, ethyl 4-oxo-1,4-dihydroquinoline-3-carboxylate] | – | – | inhibition at 1 µM [1]: 40%; inhibition at 10 µM [1]: 45%
CCOC(=O)c1cn(Cc2ccccc2)c2ccccc2c1=O [Compound 85, ethyl 1-benzyl-4-oxo-1,4-dihydroquinoline-3-carboxylate] | – | – | inhibition at 1 µM [1, 2]: 0%; inhibition at 10 µM [1, 3]: 97%
O=C(O)c1cn(Cc2ccccc2)c2ccccc2c1=O [Compound 86, 1-benzyl-4-oxo-1,4-dihydroquinoline-3-carboxylic acid] | – | – | inhibition at 1 µM [1, 2]: 0%; inhibition at 10 µM [1, 3]: 45%
CC(C)(C)OC(=O)CNC(=O)c1cn(Cc2ccccc2)c2ccccc2c1=O [Compound 87, tert-butyl 2-(1-benzyl-4-oxo-1,4-dihydroquinoline-3-carboxamido)acetate] | – | – | inhibition at 1 µM [1, 2]: 0%; inhibition at 10 µM [1, 3]: 67%
CC(C)[C@H](NC(=O)c1cn(Cc2ccccc2)c2ccccc2c1=O)C(=O)OC(C)(C)C [Compound 88, (S)-tert-butyl 2-(1-benzyl-4-oxo-1,4-dihydroquinoline-3-carboxamido)-3-methylbutanoate] | – | – | inhibition at 1 µM [1, 2]: 12%; inhibition at 10 µM [1, 3]: 55%
CC(C)c1cccc2c(=O)c(C(=O)O)c[nH]c12 [Compound 103] | 0% | 65% | –
COc1ccc2[nH]cc(C(=O)O)c(=O)c2c1 [Compound 104] | 0% | 69% | –
CC(=O)c1ccc2[nH]cc(C(=O)O)c(=O)c2c1 [Compound 105] | 80% | 100% | –
O=C(O)c1ccc2c(=O)c(C(=O)O)c[nH]c2c1 [Compound 106] | 90% | 90% | –
Cc1cccc2c(=O)c(C(=O)O)c[nH]c12 [Compound 107] | 15% | 100% | –
CN(C)c1ccc2[nH]cc(C(=O)O)c(=O)c2c1 [Compound 108] | 0% | 90% | –
O=C(O)c1c[nH]c2c(C(=O)O)cccc2c1=O [Compound 109] | 18% | 100% | –

Structure (SMILES) | % inhibition 1 μM [1, 2] | % inhibition 10 μM [1, 3] | further results
O=C(O)c1c[nH]c2cc(C(F)(F)F)ccc2c1=O [Compound 110] | 70% | 100% | –
O=C(O)c1ccc2[nH]cc(C(=O)O)c(=O)c2c1 [Compound 111] | 100% | 100% | –
Cc1ccc2[nH]cc(C(=O)O)c(=O)c2c1 [Compound 112] | 100% | 100% | –
O=C(O)c1c[nH]c2ccc(Br)cc2c1=O [Compound 113] | 12% | 100% | –
O=C(O)c1c[nH]c2ccc(F)cc2c1=O [Compound 114] | 100% | 100% | –
CC(C)C(NC(=O)c1cn(Cc2ccccc2)c2ccccc2c1=O)C(=O)O (stereo not drawn) [Compound 116] | 80% | 100% | % relaxation 1 μM (rat mesenteric arteries; [4]): 4%; % relaxation 3 μM (rat mesenteric arteries; [5]): 0%; % relaxation 10 μM (rat mesenteric arteries; [6]): 0%; % relaxation 30 μM (rat mesenteric arteries; [7]): 9%
O=C(O)CNC(=O)c1cn(Cc2ccccc2)c2ccccc2c1=O [Compound 117, 2-(1-benzyl-4-oxo-1,4-dihydroquinoline-3-carboxamido)acetic acid] | – | – | inhibition at 1 µM (rat mesenteric arteries; Rattus norvegicus, 1 μM, U46619-contracted third-order arteries): 0%; inhibition at 3 µM (rat mesenteric arteries; Rattus norvegicus, 3 μM, U46619-contracted third-order arteries): 0%; inhibition at 10 µM (rat mesenteric arteries; Rattus norvegicus, 10 μM, U46619-contracted third-order arteries): 2%; inhibition at 30 µM (rat mesenteric arteries; Rattus norvegicus, 30 μM, U46619-contracted third-order arteries): 42%; EC50 (rat mesenteric arteries; Rattus norvegicus): > 50 µM; inhibition at 1 µM [1, 2]: 87%; inhibition at 10 µM [1, 3]: 100%
CC(C)C(NC(=O)c1cn(Cc2ccccc2)c2ccc(Br)cc2c1=O)C(=O)O (stereo not drawn) [Compound 119] | 80% | 100% | % relaxation 1 μM (rat mesenteric arteries; [4]): 2%; % relaxation 3 μM (rat mesenteric arteries; [5]): 5%; % relaxation 10 μM (rat mesenteric arteries; [6]): 26%; % relaxation 30 μM (rat mesenteric arteries; [7]): 94%; EC50 (rat mesenteric arteries): > 50 µM
O=C(O)c1cn(C2CC2)c2cc(N3CCNCC3)c(F)cc2c1=O [Compound 134] | 55% | 80% | –
CC1COc2c(N3CCN(C)CC3)c(F)cc3c(=O)c(C(=O)O)cn1c23 (stereo not drawn) [Compound 136] | 15% | 20% | –
CC1COc2c(N3CCN(C)CC3)c(F)cc3c(=O)c(C(=O)O)cn1c23 (stereo not drawn) [Compound 138] | 11% | 40% | –
C[C@@H]1CN(c2c(F)c(N)c3c(=O)c(C(=O)O)cn(C4CC4)c3c2F)C[C@H](C)N1 [Compound 141] | 0% | 28% | –
CC1CCc2c(N3CCC(O)CC3)c(F)c(N)c3c(=O)c(C(=O)O)cn1c23 (stereo not drawn) [Compound 142] | 18% | 75% | –
CN1CCN(c2cc3c(cc2F)c(=O)c(C(=O)O)cn3-c2ccc(F)cc2)CC1 [Compound 144] | 23% | 40% | –
CC[C@H](C)[C@H](NC(=O)[C@@H](CCCN=C(N)N)NC(=O)[C@H](CC(=O)O)NC(=O)[C@H]([C@@H](C)CC)N1CC[C@@H](NC(=O)Cc2ccc(NC(=O)c3cnc4ccccc4n3)cc2)C1=O)C(N)=O [Compound M372049] | – | – | binding to human NPR-C (SPR) (Human NPR-C): binding
